According to the NIST ThermoML archive (doi:10.1021/je700287u):

Conditions: Liquid

CN(CCO)CCO [N-methyldiethanolamine]
Conditions	mass density [kg/m3]
313.09 K, 1007 kPa	1025.3
313.09 K, 1989 kPa	1025.8
313.09 K, 3027 kPa	1026.4
313.09 K, 4003 kPa	1026.9
313.09 K, 5004 kPa	1027.3
313.09 K, 6004 kPa	1027.8
313.09 K, 6996 kPa	1028.3
313.09 K, 8006 kPa	1028.8
313.09 K, 9066 kPa	1029.4
313.09 K, 10021 kPa	1029.8
313.09 K, 11008 kPa	1030.3
313.09 K, 11995 kPa	1030.8
313.09 K, 13024 kPa	1031.3
313.09 K, 13984 kPa	1031.7
313.09 K, 14994 kPa	1032.2
313.09 K, 15992 kPa	1032.7
313.09 K, 16977 kPa	1033.1
313.09 K, 17994 kPa	1033.6
313.09 K, 19000 kPa	1034
313.09 K, 19985 kPa	1034.5
323.01 K, 1003 kPa	1017.6
323.01 K, 2020 kPa	1018.2
323.01 K, 3006 kPa	1018.7
323.01 K, 4031 kPa	1019.2
323.01 K, 5002 kPa	1019.7
323.01 K, 6020 kPa	1020.2
323.01 K, 7003 kPa	1020.7
323.01 K, 8000 kPa	1021.2
323.01 K, 9006 kPa	1021.7
323.01 K, 9991 kPa	1022.2
323.01 K, 11005 kPa	1022.7
323.01 K, 12000 kPa	1023.2
323.01 K, 13010 kPa	1023.7
323.01 K, 14000 kPa	1024.2
323.01 K, 14987 kPa	1024.7
323.01 K, 15987 kPa	1025.2
323.01 K, 17012 kPa	1025.6
323.01 K, 17991 kPa	1026.1
323.01 K, 18995 kPa	1026.6
323.01 K, 20012 kPa	1027.1
332.95 K, 1045 kPa	1009.9
332.95 K, 2032 kPa	1010.5
332.95 K, 2995 kPa	1011
332.95 K, 3991 kPa	1011.6
332.95 K, 4983 kPa	1012.1
332.95 K, 6016 kPa	1012.6
332.95 K, 6998 kPa	1013.2
332.95 K, 8009 kPa	1013.7
332.95 K, 8993 kPa	1014.2
332.95 K, 9991 kPa	1014.7
332.95 K, 10985 kPa	1015.3
332.95 K, 12014 kPa	1015.8
332.95 K, 13079 kPa	1016.3
332.95 K, 13992 kPa	1016.8
332.95 K, 14999 kPa	1017.3
332.95 K, 15997 kPa	1017.8
332.95 K, 16989 kPa	1018.3
332.95 K, 17997 kPa	1018.8
332.95 K, 19011 kPa	1019.3
332.95 K, 19963 kPa	1019.7
342.78 K, 1004 kPa	1002
342.78 K, 1998 kPa	1002.6
342.78 K, 3050 kPa	1003.2
342.78 K, 4015 kPa	1003.7
342.78 K, 4998 kPa	1004.3
342.78 K, 6020 kPa	1004.9
342.78 K, 7011 kPa	1005.4
342.78 K, 8034 kPa	1006
342.78 K, 9001 kPa	1006.5
342.78 K, 10000 kPa	1007.1
342.78 K, 11000 kPa	1007.6
342.78 K, 12012 kPa	1008.2
342.78 K, 12947 kPa	1008.7
342.78 K, 13991 kPa	1009.2
342.78 K, 15001 kPa	1009.8
342.78 K, 15987 kPa	1010.3
342.78 K, 16998 kPa	1010.8
342.78 K, 18005 kPa	1011.3
342.78 K, 18981 kPa	1011.9
342.78 K, 19980 kPa	1012.4
352.68 K, 1013 kPa	994.4
352.68 K, 2013 kPa	995
352.68 K, 3004 kPa	995.6
352.68 K, 3999 kPa	996.1
352.68 K, 5003 kPa	996.8
352.68 K, 6019 kPa	997.3
352.68 K, 7005 kPa	997.8
352.68 K, 8001 kPa	998.4
352.68 K, 8984 kPa	999
352.68 K, 9981 kPa	999.5
352.68 K, 11029 kPa	1000.2
352.68 K, 11980 kPa	1000.7
352.68 K, 13051 kPa	1001.3
352.68 K, 14000 kPa	1001.8
352.68 K, 14988 kPa	1002.4
352.68 K, 16018 kPa	1002.9
352.68 K, 16978 kPa	1003.4
352.68 K, 17977 kPa	1004
352.68 K, 19003 kPa	1004.5
352.68 K, 19990 kPa	1005.1
362.52 K, 1005 kPa	986.7
362.52 K, 2045 kPa	987.3
362.52 K, 2982 kPa	987.8
362.52 K, 4026 kPa	988.4
362.52 K, 5007 kPa	988.9
362.52 K, 6014 kPa	989.5
362.52 K, 7015 kPa	990.2
362.52 K, 7998 kPa	990.8
362.52 K, 9003 kPa	991.3
362.52 K, 9986 kPa	991.9
362.52 K, 10996 kPa	992.5
362.52 K, 12008 kPa	993.1
362.52 K, 13004 kPa	993.7
362.52 K, 13985 kPa	994.2
362.52 K, 15010 kPa	994.8
362.52 K, 15983 kPa	995.4
362.52 K, 17007 kPa	995.7
362.52 K, 17985 kPa	996.3
362.52 K, 18994 kPa	996.9
362.52 K, 19994 kPa	997.4
